Assays:
[1] = LNP zeta potential; format: physicochemical; settings: mRNA LNP
Text: Nanoparticle compositions can be characterized by various methods. For example, the morphology and size distribution of nanoparticle compositions can be examined using microscopy (e.g., transmission electron microscopy or scanning electron microscopy). The zeta potential can be measured using dynamic light scattering or potentiometric titration. Dynamic light scattering can also be used to determine particle size. Instruments such as the Zetasizer Nano ZS (Malvern Instruments Ltd., Malvern, Worcestershire, UK) can also be used to measure multiple characteristics of nanoparticle compositions, such as particle size, polydispersity index, and zeta potential.
[…]: The zeta potential of the nanoparticle composition can indicate the electrophoretic potential of the composition. For example, zeta potential may describe the surface charge of the nanoparticle composition. Nanoparticle compositions with relatively low positive or negative charges are generally desirable, as materials with higher charges may interact undesirably with cells, tissues, and other components in the body. In some embodiments, the zeta potential of the nanoparticle composition may be about −10 mV to about +20 mV, about −10 mV to about +15 mV, about −10 mV to about +10 mV, about −10 mV to about +5 mV, about −10 mV to about 0 mV, about −10 mV to about −5 mV, about −5 mV to about +20 mV, about −5 mV to about +15 mV, about −5 mV to about +10 mV, about −5 mV to about +5 mV, about −5 mV to about 0 mV, about 0 mV to about +20 mV, about 0 mV to about +15 mV, about 0 mV to about +10 mV, about 0 mV to about +5 mV, about +5 mV to about +20 mV, about +5 mV to about +15 mV, or about +5 mV to about +10 mV.

[2] = LNP encapsulation efficiency (Quant-it Ribogreen); format: physicochemical; settings: mRNA LNP, cationic lipid/DSPC/cholesterol/PEG-lipid 50:10:38.5:1.5
Text: Encapsulation Efficiency: The encapsulation efficiency of a therapeutic and/or prophylactic agent refers to the amount of the therapeutic and/or prophylactic agent encapsulated within or otherwise associated with the nanoparticle composition relative to the initial amount provided during preparation. Encapsulation efficiency is desirably high (such as close to 100%). Encapsulation efficiency can be measured, for example, by comparing the amount of therapeutic and/or prophylactic agent in a solution containing the nanoparticle composition before and after disruption of the nanoparticle composition using one or more organic solvents or detergents. Fluorescence can be used to measure the amount of free therapeutic and/or prophylactic agent (e.g., RNA) in solution. For the nanoparticle compositions described herein, the encapsulation efficiency of the therapeutic and/or prophylactic agent may be at least 50%, such as 50%, 55%, 60%, 65%, 70%, 75%, 80%, 85%, 90%, 91%, 92%, 93%, 94%, 95%, 96%, 97%, 98%, 99%, or 100%. In some embodiments, the encapsulation efficiency may be at least 80%. In certain embodiments, the encapsulation efficiency may be at least 90%.
(§1) In summary, the cationic lipid described herein, DSPC, cholesterol, and PEG-lipid were dissolved in ethanol at a molar ratio of 50:10:38.5:1.5 and diluted in 10 mM to 50 mM citrate buffer at pH 4 with mRNA. Using a microfluidic device, the lipid ethanol solution was mixed with mRNA aqueous solution at a volume ratio of 1:3 and a total flow rate ranging from 6-30 mL/min, preparing LNPs with a total lipid to mRNA weight ratio of approximately 10:1 to 30:1. Ethanol was removed by dialysis and replaced with PBS. Finally, the lipid nanoparticles were filtered through a 0.22 μm sterile filter.
(§2) The size of lipid nanoparticles was measured by dynamic light scattering using a Malvern Zetasizer Nano ZS (Malvern, UK) with a 90° scattering detection mode. The encapsulation efficiency of lipid nanoparticles was determined using the Quant-it Ribogreen RNA Quantitation Kit (Thermo Fisher Scientific, UK) according to the manufacturer's instructions. The apparent pKa of LNP formulations correlates with the delivery efficiency of nucleic acids by LNPs in vivo. The apparent pKa ranges from approximately 5 to 7. An analysis based on fluorescence from 2-(p-tolylamino)-6-naphthalenesulfonic acid (TNS) was used to determine the apparent pKa of formulations. As described above, LNP formulations containing cationic lipid/DSPC/cholesterol/DMG-PEG (50/10/38.5/1.5 mol %) in PBS were prepared. A 300 μM stock solution of TNS in distilled water was prepared. LNP formulations were diluted to 0.1 mg/mL total lipid in 3 mL of buffer solution containing 50 mM sodium citrate, 50 mM sodium phosphate, 50 mM sodium borate, and 30 mM sodium chloride (pH ranged from 3 to 9). […] S-shaped curve best-fit analysis was applied to the fluorescence data, and the pKa value was measured as the pH value producing half-maximal fluorescence intensity.

[3] = LNP size and PDI by dynamic light scattering; format: physicochemical; settings: mRNA LNP, cationic lipid/DSPC/cholesterol/PEG-lipid 50:10:38.5:1.5
Description: as §1, §2

[4] = system: mice; assay: Bioluminescent study, intramuscular injection of F-luc mRNA LNPs; format: in vivo; settings: F-luc luminescence flux normalized to MC3; 0.25 mg/kg intramuscular, mice n=3, 6-hour time point
Description: The efficacy of nanoparticle compositions was evaluated using bioluminescent studies. A dose of 0.25 mg/kg (mpk) of the formulation was administered to mice (n=3) via intramuscular injection, and bioluminescence was measured at a 6-hour time point. The test lipid nanoparticles from the MC3 formulation were evaluated, and in some cases, controls (e.g., PBS controls) were assessed for comparison.
The characteristics of the test lipid nanoparticles measured from the test groups, including F-luc luminescence intensity, are listed in the table below.

| Structure (SMILES) | Zeta potential (mV) [1] | Encapsulation efficiency (%) [2] | PDI [3] | Size (nm) [3] | Relative Total flux [4] |
| --- | --- | --- | --- | --- | --- |
| CCCCCCCCNC(=O)C(CCCCCCCC)N(CCCN(CC)CC)C(=O)CCCCCCC(=O)OC(CCCCCCCC)CCCCCCCC (stereo not shown) [Compound A33] | 0.51 mV | 94.69% | 0.10 | 79.84 nm | A (A: ≥2) |
| CCCCCCCCNC(=O)C(CCCCCCCC)N(CCC1CCCN1C)C(=O)CCCCCCC(=O)OC(CCCCCCCC)CCCCCCCC (stereo not shown) [Compound A34] | 2.08 mV | 95.23% | 0.11 | 94.21 nm | A (A: ≥2) |
| CCCCCCCCNC(=O)C(CCCCCCCC)N(CCCCN(C)C)C(=O)CCCCCCC(=O)OC(CCCCCCCC)CCCCCCCC (stereo not shown) [Compound A35] | −7.81 mV | 97.34% | 0.19 | 74.92 nm | A (A: ≥2) |
| CCCCCCCCNC(=O)C(CCCCCCCC)N(CCCN1CCCC1)C(=O)CCCCCCC(=O)OC(CCCCCCCC)CCCCCCCC (stereo not shown) [Compound A36] | −1.82 mV | 92.48% | 0.17 | 79.52 nm | A (A: ≥2) |
| CCCCCC/C=C\CCCCCCCC(C(=O)NCCCCCC)N(CCCN(C)C)C(=O)CCCCCCC(=O)OC(CCCCCCCC)CCCCCCCC (stereo not shown) [Compound A40] | −0.97 mV | 93.54% | 0.17 | 75.94 nm | C (C: ≥0.1 and <1) |
| CCCCCCCCCCOCCCCCCCC(=O)N(CCCN(C)C)C(CCCCCCCC)C(=O)NCCCCCC(=O)OC(CCCCCCCC)CCCCCCCC (stereo not shown) [Compound A41] | −10.28 mV | 54.08% | 0.66 | 264.60 nm | C (C: ≥0.1 and <1) |
| CCCCCCCCCCOCCCCCCCC(=O)N(CCCN(C)C)C(CCCCCCCC)C(=O)NCCCCCCCC (stereo not shown) [Compound A42] | −1.88 mV | 95.23% | 0.19 | 90.78 nm | A (A: ≥2) |
| CCCCCCCCC(CCCCCC)COC(=O)CCCCCNC(=O)C(CCCCC)N(CCCN1CCCC1)C(=O)CCCCCC(=O)OCC(CCCCCC)CCCCCCCC (stereo not shown) [Compound A45] | 0.83 mV | 94.62% | 0.06 | 79.00 nm | A (A: ≥2) |
| CCCCCCCCC(CCCCCC)COC(=O)CCCCCNC(=O)C(CCCCC)N(CCCCN1CCCC1)C(=O)CCCCCC(=O)OCC(CCCCCC)CCCCCCCC (stereo not shown) [Compound A46] | −0.55 mV | 94.31% | 0.19 | 107.50 nm | A (A: ≥2) |
| CCCCCCCCC(CCCCCCCC)OC(=O)CCCCCC(=O)N(CCCN(C)C)C(CCCCCCCC)C(=O)NCCCCCC(=O)OCCC12CC3CC(CC(C3)C1)C2 (stereo not shown) [Compound A48] | 0.65 mV | 94.62% | 0.08 | 64.27 nm | A (A: ≥2) |
| CCCCCCCC(C(=O)NCCCCCCCCCC(=O)OC(CCCCCC)CCCCCC)N(CCCN(CCO)CCO)C(=O)CCCCCCCCCC(=O)OC(CCCCCC)CCCCCC (stereo not shown) [Compound B2] | −6.41 mV | 85.90% | 0.15 | 104.5 nm | A (A: ≥2) |
| CCCCCCCCC(C(=O)NCCCCCCCCCC(=O)OCCCCCC)N(CCCN(CCO)CCO)C(=O)CCCCCCCCCC(=O)OC(CCCCCC)CCCCCC (stereo not shown) [Compound B3] | −6.91 mV | 79.83% | 0.306 | 85.75 nm | A (A: ≥2) |
| CCCCCCCC(C(=O)NCCCCCCCCCC(=O)OC(CCCCCC)CCCCCC)N(CCCN(CCO)CCO)C(=O)CCCCCCCCCC(=O)OCC12CC3CC(CC(C3)C1)C2 (stereo not shown) [Compound B4] | 10.58 mV | 96.14% | 0.159 | 72.08 nm | A (A: ≥2) |
| CCCCCCCC(C(=O)NCCCCCCCCCC(=O)OC(CCCCCC)CCCCCC)N(CCCN(CCO)CCO)C(=O)CCCCCCCCCC(=O)OCC1CC=CCC1 (stereo not shown) [Compound B5] | 6.08 mV | 95.00% | 0.163 | 55.64 nm | A (A: ≥2) |
| CCCCCCCC(C(=O)NCCCCCCCCCC(=O)OC(CCCCCC)CCCCCC)N(CCNCCO)C(=O)CCCCCCCCCC(=O)OC(CCCCCC)CCCCCC (stereo not shown) [Compound B6] | −0.39 mV | 75.47% | 0.183 | 61.81 nm | A (A: ≥2) |
| CCCCCCCC(C(=O)NCCCCCCCCCC(=O)OC(CCCCCC)CCCCCC)N(CCN(CO)CO)C(=O)CCCCCCCCCC(=O)OC(CCCCCC)CCCCCC (stereo not shown) [Compound B7] | −2.80 mV | 85.36% | 0.116 | 58.86 nm | A (A: ≥2) |
| CCCCCCCC(C(=O)NCCCCCCCCCC(=O)OC(CCCCCC)CCCCCC)N(CCCN(C)CCO)C(=O)CCCCCCCCCC(=O)OC(CCCCCC)CCCCCC (stereo not shown) [Compound B8] | −7.30 mV | 91.38% | 0.152 | 60.47 nm | A (A: ≥2) |
| CCCCCCCC(C(=O)NCCCCCCCCCC(=O)OC(CCCCCC)CCCCCC)N(CCCN(CCO)C1CCC1)C(=O)CCCCCCCCCC(=O)OC(CCCCCC)CCCCCC (stereo not shown) [Compound B10] | 2.18 mV | 46.91% | 0.166 | 66.9 nm | A (A: ≥2) |
| CCCCCCCC(C(=O)NCCCCCCCCCC(=O)OC(CCCCCC)CCCCCC)N(CCN(CCO)C1CCC1)C(=O)CCCCCCCCCC(=O)OC(CCCCCC)CCCCCC (stereo not shown) [Compound B11] | −9.69 mV | 81.83% | 0.205 | 70.27 nm | A (A: ≥2) |
| CCCCCCCC(C(=O)NCCCCCCCCCC(=O)OC(CCCCCC)CCCCCC)N(CCCN(CCO)C1CCCC1)C(=O)CCCCCCCCCC(=O)OC(CCCCCC)CCCCCC (stereo not shown) [Compound B12] | −9.02 mV | 93.45% | 0.183 | 65.03 nm | A (A: ≥2) |
